# In patent US20030166018A1, “Methods for identifying agents that modulate mast cell degranulation” (priority 2002, published 2003):
# System: mast cells
# Assay: Radioprotection of mast cells from γ-irradiation-induced apoptosis (anti-annexin V and propidium iodide staining)
# Format: cell-based
# Conditions: cultured mast cells from wild type and SWAP-70 ko/ko mice (similar degree in both); 100 ng/ml SCF, with or without IL-3; irradiated 0-160 Gy; FIG. 3B
# Source text: Analysis of peritoneal fluid by Percol gradient centrifugation used step-gradients (increments 0.005) with densities of Percol in PBS, 2% FCS from 1.07 to 1.09. Cells accumulating in the pellet and those banding at 1.09 and 1.085 densities stained intensively with toluidine blue and with berberine sulfate and are regarded as mature mast cells. Assays for apoptosis used staining of cells with propidium iodide or anti annexin V antibodies as described (Ref. 15). Immunofluorescence and Western blotting were performed as described (Ref. 24).
# Mast cells from wild type and SWAP-70^ko/ko mice were cultured in the presence or absence of 100 ng/ml SCF, with or without IL-3, and irradiated with various doses (0-160 Gy). Subsequently, apoptosis was measured by staining with anti-annexin V and propidium iodine. […] This elevated sensitivity was confirmed in a series of irradiation experiments in which mast cells were compared to other primary cell types, including thymocytes, preB cells, and fibroblasts. All of these non-mast cell were of identical sensitivity for γ-irradiation regardless of their SWAP-70 genotype. No increased sensitivity of SWAP-70 deficient mast cells for UV irradiation was observed.
substance,measurement,value
stem cell factor [SCF],protection from γ-irradiation-induced apoptosis,3 fold
